Experimental data reported in patent publication US10722514B2 (FLX Bio, Inc., priority 2017, dated 2020).
Where two headings read alike, the source gives them in different places.

Biological target: T1, recombinant full-length USP7 (Homo sapiens, UniProt Q93009)
T1 construct: A 25 μl reaction volume containing recombinant full-length USP7 (62 pM)
Assay: USP7-mediated ubiquitin-rhodamine cleavage assay
Format: biochemical
Details: recombinant full-length USP7 62 pM, ubiquitin-rhodamine 100 nM, 1 hour reaction at room temperature
Summary of the method: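 USP7 (62 pM) in 20 mM HEPES pH 7.3, 150 mM NaCl, 1 mM TCEP, 125 μg/ml BSA was preincubated with compound (1% DMSO) for 30 min at room temperature. Ubiquitin-rhodamine (100 nM final) was then added for 1 hour, the reaction stopped with acetic acid, and fluorescence read; IC50 from 4-parameter fit.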

[1] = 30-minute incubation with compound, read-out: Potency: USP7 IC50
[2] = 30-minute pre-incubation, read-out: Potency (USP7 IC50)
[3] = 30-minute incubation, read-out: Potency (USP7 IC50)

T1 sequence (Q93009 whole entry): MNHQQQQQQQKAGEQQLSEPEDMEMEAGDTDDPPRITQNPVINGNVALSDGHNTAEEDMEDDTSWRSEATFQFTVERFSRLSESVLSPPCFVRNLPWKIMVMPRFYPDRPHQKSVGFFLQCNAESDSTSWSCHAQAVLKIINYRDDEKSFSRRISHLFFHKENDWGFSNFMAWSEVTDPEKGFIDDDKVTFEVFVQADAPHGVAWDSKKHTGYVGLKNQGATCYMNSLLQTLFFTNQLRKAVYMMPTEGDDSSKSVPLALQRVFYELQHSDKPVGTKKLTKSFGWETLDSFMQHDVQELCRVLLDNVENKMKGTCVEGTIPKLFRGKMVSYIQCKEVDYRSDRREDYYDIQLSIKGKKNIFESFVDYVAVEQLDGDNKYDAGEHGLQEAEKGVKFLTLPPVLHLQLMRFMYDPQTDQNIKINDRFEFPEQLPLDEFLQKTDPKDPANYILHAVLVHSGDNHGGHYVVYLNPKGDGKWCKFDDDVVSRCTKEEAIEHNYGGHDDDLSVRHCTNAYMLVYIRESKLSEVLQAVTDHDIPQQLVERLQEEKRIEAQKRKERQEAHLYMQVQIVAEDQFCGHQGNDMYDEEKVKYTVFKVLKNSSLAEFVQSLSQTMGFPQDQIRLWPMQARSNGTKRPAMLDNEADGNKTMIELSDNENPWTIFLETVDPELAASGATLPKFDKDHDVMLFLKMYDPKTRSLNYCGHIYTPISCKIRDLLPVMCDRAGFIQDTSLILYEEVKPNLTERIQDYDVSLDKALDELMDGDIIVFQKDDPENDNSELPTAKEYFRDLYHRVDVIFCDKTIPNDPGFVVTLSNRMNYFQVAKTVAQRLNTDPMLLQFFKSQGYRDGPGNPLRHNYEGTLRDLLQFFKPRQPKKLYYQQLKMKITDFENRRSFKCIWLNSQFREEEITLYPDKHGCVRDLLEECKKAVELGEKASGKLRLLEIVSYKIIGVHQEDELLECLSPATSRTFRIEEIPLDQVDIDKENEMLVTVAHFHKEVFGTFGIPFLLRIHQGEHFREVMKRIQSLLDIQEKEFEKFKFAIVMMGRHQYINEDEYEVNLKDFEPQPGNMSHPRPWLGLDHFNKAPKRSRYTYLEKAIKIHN

Compound | IC50 [1] [µM] | other results
Cc1cc(Cl)cc(-c2ccnc3cc(Cn4c(=O)ccn(C)c4=O)sc23)c1O[C@H]1CN[C@@H](C(=O)O)C1 [Example 601, (2R,4R)-4-[4-chloro-2-methyl-6-[2-[(3-methyl-2,6-dioxo-pyrimidin-1-yl)methyl]thieno[3,2-b]pyridin-7-yl]phenoxy]pyrrolidine-2-carboxylic acid] |  | IC50 [2]: 1 to 10 µM
Cc1cc(Cl)cc(-c2ccnc3cc(CO)sc23)c1O[C@@H]1CCC[C@H]1N(C)C [Example 92, (7-(5-Chloro-2-(((1R,2R)-2-(dimethylamino)cyclopentyl)oxy)-3-methylphenyl)thieno[3,2-b]pyridin-2-yl)methanol] | > 30 | 
Cc1cc(Cl)cc(-c2ccnc3cc(Cn4c(=O)ccn(C)c4=O)sc23)c1OC1CCCN(CCO)C1 (stereo not drawn) [Example 506, 3-[[7-[5-chloro-2-[[1-(2-hydroxyethyl)-3-piperidyl]oxy]-3-methyl-phenyl]thieno[3,2-b]pyridin-2-yl]methyl]-1-methyl-pyrimidine-2,4-dione] |  | IC50 [2]: < 1 µM
Cc1cc(Cl)cc(-c2ccnc3cc(Cn4c(=O)ccn(CC(F)(F)F)c4=O)sc23)c1OC1CC(N2CCC(O)C2)C1 (stereo not drawn) [Example 672, 3-[[7-[5-chloro-2-[3-(3-hydroxypyrrolidin-1-yl)cyclobutoxy]-3-methyl-phenyl]thieno[3,2-b]pyridin-2-yl]methyl]-1-(2,2,2-trifluoroethyl)pyrimidine-2,4-dione; 2,2,2-trifluoroacetic acid] |  | IC50 [3]: < 1 µM
Cc1cc(Cl)cc(-c2ccnc3cc(Cn4c(=O)ccn(CC(F)(F)F)c4=O)sc23)c1O[C@H]1C[C@H](N)C1 [Example 277, 3-((7-(2-((1r,3r)-3-Aminocyclobutoxy)-5-chloro-3-methylphenyl)thieno[3,2-b]pyridin-2-yl)methyl)-1-(2,2,2-trifluoroethyl)pyrimidine-2,4(1H,3H)-dione] | < 1 | 
Cc1cc(C#N)cc(-c2ccnc3ccsc23)c1OCC1(C#N)CNC1 [Example 9, 3-((4-Cyano-2-methyl-6-(thieno[3,2-b]pyridin-7-yl)phenoxy)methyl)azetidine-3-carbonitrile] | < 1 | 
Cc1cc(Cl)cc(-c2ccnc3cc(Cn4c(=O)ccn(CC(F)(F)F)c4=O)sc23)c1O[C@@H]1CN[C@H](C(C)(C)O)C1 [Example 634, 3-[[7-[5-chlloro-2-[(3S,5S)-5-(1-hydroxy-1-methyl-ethyl)pyrrolidin-3-yl]oxy-3-methyl-phenyl]thieno[3,2-b]pyridin-2-yl]methyl]-1-(2,2,2-trifluoroethyl)pyrimidine-2,4-dione] |  | IC50 [2]: < 1 µM
N#Cc1cc(Cl)cc(-c2ccnc3cc(CO)sc23)c1O[C@H]1CCCNC1 [Example 239, (S)-5-Chloro-3-(2-(hydroxymethyl)thieno[3,2-b]pyridin-7-yl)-2-(piperidin-3-yloxy)benzonitrile] | > 30 | 
Cc1cc(C(F)(F)F)cc(-c2ccnc3cc(Cn4c(=O)ccn(C)c4=O)sc23)c1OC1CCNCC1 [Example 446, 1-methyl-3-[[7-[3-methyl-2-(4-piperidyloxy)-5-(trifluoromethyl)phenyl]thieno[3,2-b]pyridin-2-yl]methyl]pyrimidine-2,4-dione] |  | IC50 [2]: < 1 µM
CC[C@@H](c1cc2nccc(-c3cc(Cl)cc(C)c3OC3CCNCC3)c2s1)N1C(=O)CCC1=O [Example 256, (S)-1-(1-(7-(5-Chloro-3-methyl-2-(piperidin-4-yloxy)phenyl)thieno[3,2-b]pyridin-2-yl)propyl)pyrrolidine-2,5-dione] | 1 to 10 | 
O=C(O)C(F)(F)F.[2H]C1([2H])C(=O)N(Cc2cc3nccc(-c4cc(Cl)cc(C)c4O[C@@H]4CNC[C@@H]4F)c3s2)C(=O)C1([2H])[2H] [Example 384, 1-[[7-[5-chloro-2-[(3R,4S)-4-fluoropyrrolidin-3-yl]oxy-3-methyl-phenyl]thieno[3,2-b]pyridin-2-yl]methyl]-3,3,4,4-tetradeuterio-pyrrolidine-2,5-dione; 2,2,2-trifluoroacetic acid] | < 1 | 
Cc1cc(Cl)cc(-c2ccnc3cc(CN4C(=O)CCC4=O)sc23)c1OC1CCOCC1 [Example 450, 1-[[7-(5-chloro-3-methyl-2-tetrahydropyran-4-yloxy-phenyl)thieno[3,2-b]pyridin-2-yl]methyl]pyrrolidine-2,5-dione] |  | IC50 [2]: < 1 µM
CC(=O)NCc1cc2nccc(-c3cc(Cl)cc(C)c3O[C@H]3CCCNC3)c2s1 [Example 263, (S)—N-((7-(5-Chloro-3-methyl-2-(piperidin-3-yloxy)phenyl)thieno[3,2-b]pyridin-2-yl)methyl)acetamide] | 1 to 10 | 
Cc1cc(Cl)cc(-c2ccnc3cc(Cn4c(=O)ccn(CC(F)(F)F)c4=O)sc23)c1Oc1ccncc1 [Example 681, 3-[[7-[5-chloro-3-methyl-2-(4-pyridyloxy)phenyl]thieno[3,2-b]pyridin-2-yl]methyl]-1-(2,2,2-trifluoroethyl)pyrimidine-2,4-dione; 2,2,2-trifluoroacetic acid] |  | IC50 [3]: < 1 µM

The next lines start with results.

IC50 [1] [µM] | Compound | other results
< 1 | Cc1cc(C#N)cc(-c2ccnc3cc(CN4C(=O)C5C6CCC(C6)C5C4=O)sc23)c1O[C@@H]1CNC[C@@H]1F (stereo partly drawn) [Example 112, 3-(2-((1,3-Dioxooctahydro-2H-4,7-methanoisoindol-2-yl)methyl)thieno[3,2-b]pyridin-7-yl)-4-(((3R,4S)-4-fluoropyrrolidin-3-yl)oxy)-5-methylbenzonitrile] | 
< 1 | Cc1cc(C(F)(F)F)cc(-c2ccnc3cc(Cn4c(=O)[nH]cc(F)c4=O)sc23)c1O[C@@H]1CNC[C@@H]1F [Example 136, 5-Fluoro-3-((7-(2-(((3R,4S)-4-fluoropyrrolidin-3-yl)oxy)-3-methyl-5-(trifluoromethyl)phenyl)thieno[3,2-b]pyridin-2-yl)methyl)pyrimidine-2,4(1H,3H)-dione] | 
< 1 | Cc1cc(Cl)cc(-c2ccnc3cc(CN4C(=O)C5CC5C4=O)sc23)c1O[C@@H]1CCNC[C@@H]1C (stereo partly drawn) [Example 324, 3-[[7-[5-chloro-3-methyl-2-[[(3S,4R)-3-methyl-4-piperidyl]oxy]phenyl]thieno[3,2-b]pyridin-2-yl]methyl]-3-azabicyclo[3.1.0]hexane-2,4-dione] | 
< 1 | Cc1cc(Cl)cc(-c2ccnc3cc(CN4C(=O)CCC4=O)sc23)c1O[C@@H]1CCCNCC1 [Example 270, (R)-1-((7-(2-(Azepan-4-yloxy)-5-chloro-3-methylphenyl)thieno[3,2-b]pyridin-2-yl)methyl)pyrrolidine-2,5-dione] | 
< 1 | N#Cc1cc(Cl)cc(-c2ccnc3cc(CN4C(=O)CCC4=O)sc23)c1O[C@@H]1CNC[C@@H]1F [Example 121, 5-Chloro-3-(2-((2,5-dioxopyrrolidin-1-yl)methyl)thieno[3,2-b]pyridin-7-yl)-2-(((3R,4S)-4-fluoropyrrolidin-3-yl)oxy)benzonitrile] | 
< 1 | Cc1cc(Cl)cc(-c2ccnc3cc([C@H](C)n4c(=O)ccn(C)c4=O)sc23)c1O[C@H]1CCCNC1 [Example 287, 3-[(1S)-1-[7-[5-chloro-3-methyl-2-[[(3S)-3-piperidyl]oxy]phenyl]thieno[3,2-b]pyridin-2-yl]ethyl]-1-methyl-pyrimidine-2,4-dione; 2,2,2-trifluoroacetic acid] | 
< 1 | Cc1cc(Cl)cc(-c2ncnc3cc(CN4C(=O)C5C(C4=O)C5(C)C)sc23)c1O[C@H]1CCCN[C@H]1C (stereo partly drawn) [Example 359, 3-[[4-[5-chloro-3-methyl-2-[[(2S,3S)-2-methyl-3-piperidyl]oxy]phenyl]thieno[3,2-d]pyrimidin-6-yl]methyl]-6,6-dimethyl-3-azabicyclo[3.1.0]hexane-2,4-dione] | 
